We go through ten compounds from patent publication US20250051375A1, “ANTI-HIV COMPOUNDS” (Gilead Sciences, Inc., priority 2023, published 2025).

In brackets after ≈: the same amount, converted by molar mass. Read-outs that look alike come from different tables or passages of the source.

One data set relates to HIV-1 IIIB strain. Nature of the data set: MT-4 HIV Wild Type Virus Infection Assay (IIIB Virus). The class given is cell-based. As to conditions: Human immunodeficiency virus 1, IIIB, MT4, 120 h, MT-4 cells acutely infected with HIV-1 IIIB, 5 day incubation, Cell-titer glo. The method, boiled down:
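MT-4 cells at 2×10^6 cells/ml in RPMI/10% FBS were acutely infected with HIV-1 IIIB for 1 h at 37° C, diluted 25× and added to serially diluted compounds. After 5 days at 37° C, viability read by CellTiter-Glo luminescence; EC50 from dose-response curves.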

Data set [1] concerns the target bovine intestinal alkaline phosphatase (Bos taurus (Bovine), UniProt P19111). Nature of the data set: BiALP: conversion by bovine intestinal alkaline phosphatase. The class given is in vitro ADME. As to conditions: 2 μM substrate, 100 ng/mL iALP, Tris pH 7.8, 37° C., 60 minutes. The method, boiled down:
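LC-MS (positive mode) quantified analyte/internal-standard peak area ratios, referenced to 2 μM parent product. This followed a 60 min, 37° C reaction of 2 μM substrate in Tris buffer pH 7.8 (1 mM MgCl2, 1 mM ZnCl2) containing 100 ng/mL iALP or buffer alone, run in triplicate.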

Data set [2] is described as follows: Intestinal S9 Assay (human GI S9). As to conditions: 1.0 mg/mL S9 protein; for Human GI S9 T½: 2 μM, TRIS pH 7.4; for half-life at 2 μM: human, TRIS pH 7.4, read-out: Human GI S9 T½. In kind it is in vitro ADME. As for the experimental part:
(§1) Reagents. Stock solutions of test compounds in dimethyl sulfoxide (DMSO) having a final concentration of 10 mM were prepared and used in all experiments. Sekisui XenoTech (Kansas City, KS) provided pooled intestinal S9 fractions. All other chemicals were purchased from Sigma-Aldrich (St. Louis, MO) or VWR (West Chester, PA). Internal Standard/Quench (IS/Q) used to stop reactions was 100 nM labetalol in (by volume) formic acid (1%) and acetonitrile (99%).
(§2) Intestinal S9 Assay: For each test compound, an aliquot of the test compound was added to S9 stock diluted with TRIS buffer (100 mM TRIS, 1 mM ZnCl2, 1 mM MgCl2), pH 7.4, to obtain an incubation protein concentration of 1.0 mg/mL. The incubation was initiated by the addition of the substrate to the S9 reaction mixture to a final concentration of 2 μM. At 0, 10, 20, 30, 60 and 120 min, 25 μL aliquots of the reaction mixture were transferred to plates containing 225 μl of IS/Q solution. After quenching, the plates were centrifuged at 3000×g for 30 minutes. 150 μL aliquots of each supernatant were transferred to new plates and 150 μL water was added. Aliquots (10 μL) of the prepared samples were analyzed on a Thermo Q-Exactive mass spectrometer as described below.
(§3) Liquid Chromatography-Mass Spectrometry: Quantification of test compounds and control substrate was performed by analyte/internal standard peak area ratio (PAR) values measured on a Thermo Q-Exactive mass spectrometer coupled to a Dionex UltiMate 3000 HPLC with a Leap Technologies HTC PAL autosampler. The column used for analysis was a Thermo Scientific Hypersil GOLD (1.9 μm particle size, 50×2.1 mm). Mobile phase A consisted of 0.1% (v/v) formic acid in water. Mobile phase B consisted of 0.1% (v/v) formic acid in acetonitrile. Elution of analytes was achieved by a series of linear gradients varying the proportions of A and B. The mass spectrometer was calibrated on a weekly basis and mass tolerance of 5 ppm was used.
(§4) Data Analysis. Metabolic stabilities were determined by measuring the rates of disappearance of test compound and positive control substrate. Data (% of substrate remaining) were plotted on a semi-log scale and fitted using an exponential decline model:
(§5) where • Ct% of substrate remaining at time=t • C0% of substrate remaining at time=0 • t time • T½ half-life • The Half-life (T½) is determined by the following equation:
(§6) [formula] • Assuming a first-order reaction, the slope (k) is extrapolated from the aforementioned plotted data.

Data set [3] in a line: Intestinal S9 Assay (dog GI S9). In kind it is in vitro ADME. As to conditions: dog, 1.0 mg/mL S9 protein, TRIS pH 7.4, read-out: Dog GI S9 T½. On the procedure:
as §1, §2, §3, §4, §5, §6

A short description of the next data set: Solubility in FaSSIF. As to conditions: 23 °C, pH 6.5, fassif, thermodynamic from solid. The procedure, abridged:
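Concentration measured by HPLC-UV after solid compound was dosed at 5 mg/mL into pH 6.5 fasted-state simulated intestinal fluid containing taurocholate and lecithin (4:1 molar) and vortexed.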

In general, EC50 refers to the concentration giving half of the maximal effect. As usually defined, the solubility is the concentration that dissolves in the medium under given conditions.

bovine intestinal alkaline phosphatase, sequence (P19111 20-506): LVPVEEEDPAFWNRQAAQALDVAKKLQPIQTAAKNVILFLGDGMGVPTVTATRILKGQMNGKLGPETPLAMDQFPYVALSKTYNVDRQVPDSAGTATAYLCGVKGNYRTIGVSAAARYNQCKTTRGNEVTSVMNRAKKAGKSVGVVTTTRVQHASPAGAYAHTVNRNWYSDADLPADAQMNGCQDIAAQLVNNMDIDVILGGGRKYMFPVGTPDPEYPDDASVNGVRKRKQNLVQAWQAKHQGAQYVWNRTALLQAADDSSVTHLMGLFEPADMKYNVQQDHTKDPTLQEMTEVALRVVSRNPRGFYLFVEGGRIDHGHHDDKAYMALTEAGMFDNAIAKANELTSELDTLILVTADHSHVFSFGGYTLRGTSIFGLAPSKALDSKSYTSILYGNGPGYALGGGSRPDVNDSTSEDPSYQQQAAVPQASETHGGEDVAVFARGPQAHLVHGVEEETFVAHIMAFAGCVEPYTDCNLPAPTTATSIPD

On to `COC(=O)N[C@H](C(=O)N[C@@H](Cc1ccc(C#Cc2cnc(N3CC4CCC(C3)N4C3COC3)nc2)cc1)[C@H](CN(Cc1c(F)cc(-c2ccn(C(F)F)n2)cc1F)NC(=O)[C@@H](NC(=O)OC)C(C)(C)C(F)(F)F)OC(=O)CC(C)(C)c1c(CC(=O)N2C[C@H](OC)C[C@H]2C(=O)O)cc(C)cc1OP(=O)(O)O)C(C)(C)C(F)(F)F` [Example 59], for which the EC50 in the data set on HIV-1 IIIB strain amounted to 0.658 µM. In data set [1], the “[Compound]” value amounted to 1520.4 nM. For the same compound, the “Human GI S9 T½” value in data set [2] turned out to be 13.2 h. In data set [3], the half-life at 2 μM amounted to 6.67 h. This compound also displayed a solubility at 2 h in the data set “Solubility in FaSSIF” of 3600 µg/mL (≈ 2230 µM).
`C=C1C[C@@H](C(=O)O)N(C(=O)Cc2cc(C)cc(OP(=O)(O)O)c2C(C)(C)CC(=O)O[C@@H](CN(Cc2c(F)cc(-c3ccn(C(F)F)n3)cc2F)NC(=O)[C@@H](NC(=O)OC)C(C)(C)C(F)(F)F)[C@H](Cc2ccc(C#Cc3cnc(N4CC5CCC(C4)N5C4COC4)nc3)cc2)NC(=O)[C@@H](NC(=O)OC)C(C)(C)C(F)(F)F)C1` [Example 60]: the EC50 in the data set with HIV-1 IIIB strain (read-out: EC50) came out at 0.218 µM. For the same compound, the “[Compound]” value in data set [1] turned out to be 1457.7 nM. Besides, the half-life at 2 μM was 12 h in data set [2] and 5.81 h in data set [3]. Besides, in the data set “Solubility in FaSSIF” (FaSSIF (pH 6.5) solubility, FaSSIF pH 6.5, dose 5 mg/mL, 2-hour incubation, ambient temperature), the solubility is 3480 µg/mL (≈ 2190 µM).
As to `COC(=O)N[C@H](C(=O)N[C@@H](Cc1ccc(C#Cc2cnc(N3CC4CCC(C3)N4C3COC3)nc2)cc1)[C@H](CN(Cc1c(F)cc(-c2ccn(C(F)F)n2)cc1F)NC(=O)[C@@H](NC(=O)OC)C(C)(C)C(F)(F)F)OC(=O)CC(C)(C)c1c(CC(=O)N2CC(C)(C)C[C@H]2C(=O)O)cc(C)cc1OP(=O)(O)O)C(C)(C)C(F)(F)F` [Example 61], it took 1.89 µM to reach a half-maximal effect with HIV-1 IIIB strain (EC50). In addition, the “[Compound]” value in data set [1] is reported as 1611.1 nM. Also, the values for the half-life at 2 μM in data set [2] and in data set [3] were 11.7 h and 11.2 h, respectively. Also, the solubility at 2 h in the data set “Solubility in FaSSIF” amounted to 2580 µg/mL (≈ 1600 µM).
For `COC(=O)N[C@H](C(=O)N[C@@H](Cc1ccc(C#Cc2cnc(N3CC4CCC(C3)N4C3COC3)nc2)cc1)[C@H](CN(Cc1c(F)cc(-c2ccn(C(F)F)n2)cc1F)NC(=O)[C@@H](NC(=O)OC)C(C)(C)C(F)(F)F)OC(=O)CC(C)(C)c1c(CC(=O)Nc2cc(C#N)cc(C(=O)O)c2)cc(C)cc1OP(=O)(O)O)C(C)(C)C(F)(F)F` [Example 63], in the data set with HIV-1 IIIB strain, the response was half-maximal at 0.243 µM (EC50). The “[Compound]” value in data set [1] is recorded as 1778.4 nM. Further, the “Human GI S9 T½” value in data set [2] stood at 13.2 h. In addition, the half-life at 2 μM in data set [3] was 6.37 h. In addition, in the data set “Solubility in FaSSIF”, the concentration in solution (solubility at 2 h) came to 495 µg/mL (≈ 304 µM).
Compound `COC(=O)N[C@H](C(=O)N[C@@H](Cc1ccc(C#Cc2cnc(N3CC4CCC(C3)N4C3COC3)nc2)cc1)[C@H](CN(Cc1c(F)cc(-c2ccn(C(F)F)n2)cc1F)NC(=O)[C@@H](NC(=O)OC)C(C)(C)C(F)(F)F)OC(=O)CC(C)(C)c1c(CC(=O)N2CCC[C@H]2C(=O)O)cc(C)cc1OP(=O)(O)O)C(C)(C)C(F)(F)F` [Example 79] returned an EC50 in the data set on HIV-1 IIIB strain of 0.645 µM. The “[Compound]” value in data set [1] is given as 2057.5 nM. Further, the half-life at 2 μM in data set [2] is 10.2 h; in data set [3] it was 9.38 h. This compound also had a solubility at 2 h in the data set “Solubility in FaSSIF” of 2680 µg/mL (≈ 1690 µM).
In turn, `COC(=O)N[C@H](C(=O)N[C@@H](Cc1ccc(C#Cc2cnc(N3CC4CCC(C3)N4C3COC3)nc2)cc1)[C@H](CN(Cc1c(F)cc(-c2ccn(C(F)F)n2)cc1F)NC(=O)[C@@H](NC(=O)OC)C(C)(C)C(F)(F)F)OC(=O)CC(C)(C)c1c(CC(=O)NC23CC4CC(C2)CC(C(=O)O)(C4)C3)cc(C)cc1OP(=O)(O)O)C(C)(C)C(F)(F)F` [Example 108] displayed an EC50 in the data set on HIV-1 IIIB strain of 0.444 µM. The “[Compound]” value in data set [1] was 2296.1 nM. Besides, the results for the half-life at 2 μM in data set [2] and in data set [3] were 7.21 h and 4.46 h, respectively. The compound further yielded a solubility at 2 h in “Solubility in FaSSIF” of less than 1000 µg/mL.
`COC(=O)N[C@H](C(=O)N[C@@H](Cc1ccc(C#Cc2cnc(N3CC4CCC(C3)N4C3COC3)nc2)cc1)[C@H](CN(Cc1c(F)cc(-c2ccn(C(F)F)n2)cc1F)NC(=O)[C@@H](NC(=O)OC)C(C)(C)C(F)(F)F)OC(=O)CC(C)(C)c1c(CC(=O)Nc2cc(C(=O)O)cc(S(C)(=O)=O)c2)cc(C)cc1OP(=O)(O)O)C(C)(C)C(F)(F)F` [Example 109] registered an EC50 in the data set with HIV-1 IIIB strain of 0.0905 µM. For the same compound, the “[Compound]” value in data set [1] turned out to be 1951.1 nM. Further, the half-life at 2 μM in data set [2] amounted to 4.48 h; in data set [3], 2.23 h. The compound further gave a solubility at 2 h in “Solubility in FaSSIF” of less than 1000 µg/mL.
The compound `COC(=O)N[C@H](C(=O)N[C@@H](Cc1ccc(C#Cc2cnc(N3CC4CCC(C3)N4C3COC3)nc2)cc1)[C@H](CN(Cc1c(F)cc(-c2ccn(C(F)F)n2)cc1F)NC(=O)[C@@H](NC(=O)OC)C(C)(C)C(F)(F)F)OC(=O)CC(C)(C)c1c(CC(=O)N2CC(C(=O)O)C2)cc(C)cc1OP(=O)(O)O)C(C)(C)C(F)(F)F` [Example 110] came in with a concentration for a half-maximal effect (EC50) with HIV-1 IIIB strain of 0.138 µM. Moreover, the “[Compound]” value in data set [1] was found to be 1852.3 nM. The half-life at 2 μM amounted to 8.51 h in data set [2] and 2.81 h in data set [3]. In the data set “Solubility in FaSSIF”, this compound displayed a solubility at 2 h of 4420 µg/mL (≈ 2820 µM).
In turn, `COC(=O)N[C@H](C(=O)N[C@@H](Cc1ccc(C#Cc2cnc(N3CC4CCC(C3)N4C3COC3)nc2)cc1)[C@H](CN(Cc1c(F)cc(-c2ccn(C(F)F)n2)cc1F)NC(=O)[C@@H](NC(=O)OC)C(C)(C)C(F)(F)F)OC(=O)CC(C)(C)c1c(CC(=O)N2CCC[C@@H]2C(=O)O)cc(C)cc1OP(=O)(O)O)C(C)(C)C(F)(F)F` [Example 111] showed an EC50 in the data set with HIV-1 IIIB strain of 0.452 µM. The “[Compound]” value in data set [1] amounted to 1803.5 nM. The half-life at 2 μM in data set [2] came to 10.3 h; in data set [3] it was 1.64 h. Further, the solubility at 2 h in the data set “Solubility in FaSSIF” came out at 4760 µg/mL (≈ 3010 µM).
In turn, `COC(=O)N[C@H](C(=O)N[C@@H](Cc1ccc(C#Cc2cnc(N3CC4CCC(C3)N4C3COC3)nc2)cc1)[C@H](CN(Cc1c(F)cc(-c2ccn(C(F)F)n2)cc1F)NC(=O)[C@@H](NC(=O)OC)C(C)(C)C(F)(F)F)OC(=O)CC(C)(C)c1c(CC(=O)N2CCC(C(=O)O)CC2C(=O)O)cc(C)cc1OP(=O)(O)O)C(C)(C)C(F)(F)F` (some centres unmarked) [Example 113] came in with an EC50 in the data set with HIV-1 IIIB strain of 0.341 µM. Further, the “[Compound]” value in data set [1] is recorded as 1948 nM. In addition, the half-life at 2 μM in data set [2] was found to be 6.56 h; in data set [3], 3.38 h. In addition, in “Solubility in FaSSIF”, the concentration in solution (solubility at 2 h) was 4140 µg/mL (≈ 2530 µM).
